# Data: US11369598B2, “Treatment of T-cell mediated diseases” (Ampio Pharmaceuticals, Inc., priority 2003, dated 2022)
# Read-outs that look alike come from different tables or passages of the source.
# Legend:
# CBP = test: Hypromatrix Array phosphorylation, TRiPS cell extracts; type: cell-based, human; design: key: 0 (negative); + to ++++ (positive); + to ++++ (positive); + to ++++ (positive); + to ++++ (positive); conditions: day 18 TRiPS cells + CD3/CD28 beads, 30 minutes at 37° C.; 0.5 mM DA-DKP or 1:500 dilution of HC 2626
# Description: (§1) The mechanism of action of DA-DKP and HC 2626 (containing MR-DKP) was investigated. […] After the incubation, the cells were lysed in Cell-Lytic Mammalian Cell Extraction Reagent (Sigma).
# (§2) The cell extracts were then separately incubated with duplicate Hypromatrix Arrays for 2 hours at room temperature, followed by two washes following the manufacturer's (Hypromatrix) protocol. The Hypromatrix Array is a nylon membrane blotted with antibodies to the transcription factors listed in Table 1 (custom manufactured by Hypromatrix). An antibody cocktail specific for phosphorylated-tyrosine, phosphorylated-serine and phosphorylated-threonine (Zymed) was added, incubated for 1 hour. Then, an anti-immunoglobulin antibody labeled with biotin was added. After washing the anti-immunoglobulin-biotin away, streptavidin-peroxidase was added, and the arrays given a final wash before adding a peroxidase-reactive luminescent substrate.
# c-jun = test: as above; type: cell-based, human; design: key: 0 (negative); + to ++++ (positive); + to ++++ (positive); + to ++++ (positive); + to ++++ (positive); conditions: day 18 TRiPS cells + CD3/CD28 beads, 30 minutes at 37° C.; 0.5 mM DA-DKP or 1:500 dilution of HC 2626
# Description: as §1, §2
# csk = test: as above; type: cell-based, human; design: key: 0 (negative); + to ++++ (positive); + to ++++ (positive); + to ++++ (positive); + to ++++ (positive); conditions: day 18 TRiPS cells + CD3/CD28 beads, 30 minutes at 37° C.; 0.5 mM DA-DKP or 1:500 dilution of HC 2626
# Description: as §1, §2
# pI3 kinase/p85 = test: as above; type: cell-based, human; design: key: 0 (negative); + to ++++ (positive); + to ++++ (positive); + to ++++ (positive); + to ++++ (positive); conditions: day 18 TRiPS cells + CD3/CD28 beads, 30 minutes at 37° C.; 0.5 mM DA-DKP or 1:500 dilution of HC 2626
# Description: as §1, §2
# Akt ½ = test: as above; type: cell-based, human; design: key: 0 (negative); + to ++++ (positive); + to ++++ (positive); + to ++++ (positive); + to ++++ (positive); conditions: day 18 TRiPS cells + CD3/CD28 beads, 30 minutes at 37° C.; 0.5 mM DA-DKP or 1:500 dilution of HC 2626
# Description: as §1, §2
# IκB-α = test: as above; type: cell-based, human; design: key: 0 (negative); + to ++++ (positive); + to ++++ (positive); + to ++++ (positive); + to ++++ (positive); conditions: day 18 TRiPS cells + CD3/CD28 beads, 30 minutes at 37° C.; 0.5 mM DA-DKP or 1:500 dilution of HC 2626
# Description: as §1, §2
# fyn = test: as above; type: cell-based, human; design: key: 0 (negative); + to ++++ (positive); + to ++++ (positive); + to ++++ (positive); + to ++++ (positive); conditions: day 18 TRiPS cells + CD3/CD28 beads, 30 minutes at 37° C.; 0.5 mM DA-DKP or 1:500 dilution of HC 2626
# Description: as §1, §2
# p38 MAPK = test: as above; type: cell-based, human; design: key: 0 (negative); + to ++++ (positive); + to ++++ (positive); + to ++++ (positive); + to ++++ (positive); conditions: day 18 TRiPS cells + CD3/CD28 beads, 30 minutes at 37° C.; 0.5 mM DA-DKP or 1:500 dilution of HC 2626
# Description: as §1, §2
# Rap1 = test: as above; type: cell-based, human; design: key: 0 (negative); + to ++++ (positive); + to ++++ (positive); + to ++++ (positive); + to ++++ (positive); conditions: day 18 TRiPS cells + CD3/CD28 beads, 30 minutes at 37° C.; 0.5 mM DA-DKP or 1:500 dilution of HC 2626
# Description: as §1, §2
# ERK1 = test: as above; type: cell-based, human; design: key to ERK1 phosphorylation score: 0 (negative); + to ++++ (positive); + to ++++ (positive); + to ++++ (positive); + to ++++ (positive); conditions: 30 minutes at 37° C., 0.5 mM DA-DKP or 1:500 dilution of HC 2626
# Description: as §1, §2
# [1] = 12 days after stimulation with anti-CD3 OKT3 antibody, 0.5 mM DA-DKP
substance,measurement,setting,value
Asp-Ala diketopiperazine [DA-DKP],CBP phosphorylation score,CBP,++
same,c-jun phosphorylation score,c-jun,+
same,csk phosphorylation score,csk,+
same,pI3 kinase/p85 phosphorylation score,pI3 kinase/p85,+
same,Akt ½ phosphorylation score,Akt ½,+++
same,IκB-α phosphorylation score,IκB-α,+
same,fyn phosphorylation score,fyn,+
same,p38 MAPK phosphorylation score,p38 MAPK,+++
same,Rap1 phosphorylation score,Rap1,++
same,ERK1 phosphorylation score,ERK1; day 18 TRiPS cells + CD3/CD28 beads,+
same,cytokine transcriptional factor activation (ERK1/2),"ERK1; day 18 TRiPS cells, CD3/CD28 beads",inhibited
same,secretion of IL-16 from TriPS cells (FIG. 2),TriPS cells; [1],decreased
same,secretion of TNFα from TriPS cells (FIG. 2),TriPS cells; [1],decreased
same,release of pre-formed cytokines,TriPS cells; TRiPS cells,inhibited
same,effect on TNFα secretion from TriPS cells (FIG. 4),TriPS cells; early in the stimulation cycle,inhibitory
same,effect on TNFα secretion from TriPS cells (FIG. 4),TriPS cells; later in the cycle (day 14),stimulatory
